Holding throughout (assay): NCI-60 cell line screen, 48 h
The test system of assay [1] is UO-31 renal.
For assay [2], the system named is M14 melanoma.
Assay [3] has as its system SK-MEL-5 melanoma.
For assay [4], the system named is CCRF-CEM leukemia.
Assay [5] relates to ACHN renal.
Assay [6] concerns KM12 colon.
In assay [7] the test system is IGROV1 ovarian.
The subject of assay [8] is TK-10 renal.
Assay [9] has as its system NCI-H522 lung.
Assay [10] concerns COLO 205 colon.

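48-hour exposure; five concentrations; linearly interpolated endpoints. The concentration for 50% growth inhibition is given as GI50. TGI denotes the concentration required for complete inhibition of growth.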

`Oc1ccccc1CNCc1nc2ccccc2[nH]1`: the TGI in [1] is 49.1 µM; in [2], greater than 100 µM; in assay [3], 65.6 µM; in assay [4] it was greater than 100 µM; in assay [5] it was 57.6 µM; in [6], greater than 100 µM. Besides, the TGI is greater than 100 µM in assay [7], greater than 100 µM in [8], greater than 100 µM in assay [9] and 82.7 µM in assay [10].

For `CCOC(=O)c1c(CN2CCCC2)n(-c2ccccc2)c2cc(Br)c(O)cc12`, the TGI in [1] turned out to be 24.5 µM; in [2], 29 µM; in [3] it was 26.4 µM; in assay [4], 34.8 µM; in assay [5] it was 44.9 µM; in assay [6], 32.2 µM. Also, the TGI amounted to 33.5 µM in [7], 48 µM in assay [8], 36.3 µM in assay [9] and 22.4 µM in assay [10].

As for `O=C(/C=C/c1ccccc1)C[C@@H](O)C[C@@H]1CC=CC(=O)O1`, the TGI in assay [1] amounted to 28.9 µM; in [2], 23.5 µM; in assay [3] it was 26.6 µM; in assay [4] it was 5.12 µM; in [5], 30.5 µM; in [6] it was 16.5 µM. Moreover, the TGI in assay [7] was 31.2 µM; in assay [8] it was 28.9 µM; in [9], 6.9 µM; in [10] it was 17.8 µM.

Consider `CC(C)c1cc2c(cc1S(=O)(=O)O)[C@@]1(C)CCC[C@@](C)(C(=O)O)C1CC2` (some centres not stated), for which the TGI in [1], in [2], in assay [3], in [4], in [5] and in [6] was greater than 100 µM in each case. Also, the TGI in assay [7], in [8], in [9] and in assay [10] was greater than 100 µM throughout.

For the molecule `COc1ccc(/C=c2\sc3n(c2=O)CCN=3)cc1`, the TGI in assay [1], in [2], in assay [3], in assay [4], in assay [5] and in assay [6] was greater than 100 µM in each case. The TGI in [8] and in [9] was greater than 100 µM in each case.

For the molecule `O=[N+]([O-])c1ccc2[nH]nc(OCc3ccccc3Cl)c2c1`, the TGI in assay [2] was greater than 100 µM; in assay [3], greater than 100 µM; in assay [4], greater than 100 µM; in assay [5], 62.1 µM; in [6] it was greater than 100 µM; in assay [7], greater than 100 µM. In addition, the TGI is 61.3 µM in assay [8], 72.7 µM in assay [9] and greater than 100 µM in assay [10].

For the molecule `O=C1c2cc3c(cc2-c2c1c1ccc(F)cc1c(=O)n2C[C@H](O)[C@@H](O)[C@H](O)CO)OCO3`, the GI50 in assay [2] is 0.0443 µM; in assay [3], 0.0568 µM; in assay [4], 0.0344 µM; in assay [7], 0.302 µM; in assay [8], 0.262 µM; in assay [9], 0.0167 µM. Further, the GI50 in [10] is 0.106 µM. The TGI was 0.599 µM in [2]; 0.183 µM in assay [3]; 2.18 µM in assay [4]; greater than 100 µM in assay [7]; 0.858 µM in assay [8]; 0.137 µM in assay [9]. In assay [10], this molecule yielded a TGI of 0.546 µM.

On to `COc1cccc(Nc2nc(-c3cccs3)nc3cc(OC)c(OC)cc23)c1`, for which the TGI in [1] is greater than 100 µM; in [2] it was 82.2 µM; in [3] it was 44.5 µM; in assay [5], 50.3 µM; in [6], 87.1 µM; in [7], 69.3 µM. Further, the results for the TGI in [8], in assay [9] and in assay [10] were greater than 100 µM, 43.1 µM and 62.3 µM, respectively.

For the molecule `C=CC1(CC/C(=C\[N+](=O)[O-])c2ccc(OC)c(OC)c2)OCC(C)(C)CO1`, the TGI was 31.6 µM in [1]; 39.6 µM in [2]; 87.2 µM in assay [3]; greater than 100 µM in [4]; 37.9 µM in [5]; 47.2 µM in [6]. The results for the TGI in [8], in assay [9] and in assay [10] were 34.6 µM, 37.8 µM and 43.4 µM, respectively.

As for `Nn1c(Nc2ccc(S(=O)(=O)Nc3ncccn3)cc2)nnc(/C=C/c2c(O)ccc3ccccc23)c1=O`, the TGI was greater than 100 µM in assay [1]; 78.2 µM in assay [2]; 47.9 µM in assay [4]; 67.3 µM in [5]; greater than 100 µM in assay [7]; 75.8 µM in [8]. Moreover, the TGI in assay [9] was 69.6 µM.

As for `Cc1ccccc1OC(C)C(=O)NN1C(=O)CSC1c1ccccc1` (configuration not stated), the TGI in assay [1], in [2], in assay [3], in assay [5], in assay [6] and in assay [7] was greater than 100 µM throughout. The TGI in assay [8], in assay [9] and in assay [10] was greater than 100 µM throughout.

In the case of `Nc1nc(SCCC/C=C/I)nc2c1ncn2C1OC(COP(=O)(O)O)C(O)C1O` (configuration not stated), the TGI in assay [2], in [3], in assay [4], in [5], in assay [6] and in assay [7] was greater than 100 µM each time. In addition, the TGI in [8], in assay [9] and in assay [10] was greater than 100 µM in each case.

`CC1(C(=O)O)CCC2(C)CCC3(C)C(=CC(=O)C4C5(C)CCC(O)C(C)(C)C5CCC43C)C2C1` (configuration not stated): the TGI in [1] is 57.1 µM; in assay [2] it was greater than 100 µM; in [3], 54.3 µM; in [4], 95.9 µM; in [5], 42.2 µM; in assay [6], 37.3 µM. Besides, the TGI is greater than 100 µM in assay [8], 50.1 µM in assay [9] and greater than 100 µM in [10].

In the case of `NS(=O)(=O)c1nnc(NC(=O)Nc2ccc(Cl)c(Cl)c2)s1`, the TGI in assay [1] was 85.3 µM; in assay [2] it was 32.3 µM; in assay [3], 30.8 µM; in [4], 37.3 µM; in [5] it was greater than 100 µM; in assay [6], 92 µM. The results for the TGI in assay [8], in assay [9] and in assay [10] were 43.9 µM, 30.1 µM and 28.2 µM, respectively.
